According to patent US20040087633A1, “Methylidene oxazolidinone compound and preparation method thereof” (Korea Institute of Science and Technology, priority 2002, published 2004):
≈ marks a conversion by molar mass, not a printed value.

Experiments:
Test in all cases: Anti-microbial activity test in vitro (agar dilution MIC)
VRE C6488 = assay type: cell-based, Enterococcus faecium; settings: VRE C6488; Agar Dilution method, Mueller Hinton Agar, 18 hours at 37° C.
Procedure: (§1) Anti-microbial activity test in vitro
(§2) Strains were cultivated for 18 hours at 37° C. in Agar Dilution method using Mueller Hinton Agar, and then plane plates inoculated with the strains by diluting them two times gradually were aligned in a row. Minimum inhibition concentration (MIC, μg/ml) for the representative compounds of the present invention, Linezolid (LZD) and vancomycin (VAN) were decided through visual observation, and the results are shown in the following tables 2 and 3.

VRE C6487 = assay type: cell-based, Enterococcus faecium; settings: VRE C6487; Agar Dilution method, Mueller Hinton Agar, 18 hours at 37° C.
Procedure: as §1, §2

MRSA C2207 = assay type: cell-based, Staphylococcus aureus; settings: MRSA C2207; Agar Dilution method, Mueller Hinton Agar, 18 hours at 37° C.
Procedure: as §1, §2

MRSA C5100 = assay type: cell-based, Staphylococcus aureus; settings: MRSA C5100; Agar Dilution method, Mueller Hinton Agar, 18 hours at 37° C.
Procedure: as §1, §2

MRSA C6068 = assay type: cell-based, Staphylococcus aureus; settings: MRSA C6068; Agar Dilution method, Mueller Hinton Agar, 18 hours at 37° C.
Procedure: as §1, §2

CRSA C1062 = assay type: cell-based, Staphylococcus aureus; settings: CRSA C1062; Agar Dilution method, Mueller Hinton Agar, 18 hours at 37° C.
Procedure: as §1, §2

MSSA C2214 = assay type: cell-based, Staphylococcus aureus; settings: MSSA C2214; Agar Dilution method, Mueller Hinton Agar, 18 hours at 37° C.
Procedure: as §1, §2

MSSA C7142 = assay type: cell-based, Staphylococcus aureus; settings: MSSA C7142; Agar Dilution method, Mueller Hinton Agar, 18 hours at 37° C.
Procedure: as §1, §2

CRSA C6043 = assay type: cell-based, Staphylococcus aureus; settings: CRSA C6043; Agar Dilution method, Mueller Hinton Agar, 18 hours at 37° C.
Procedure: as §1, §2

S. pyogenes C6003 = assay type: cell-based; settings: S. pyogenes C6003; Agar Dilution method, Mueller Hinton Agar, 18 hours at 37° C.
Procedure: as §1, §2

S. pyogenes C6012 = assay type: cell-based; settings: S. pyogenes C6012; Agar Dilution method, Mueller Hinton Agar, 18 hours at 37° C.
Procedure: as §1, §2

S. aureus ATCC 29213 = assay type: cell-based; settings: Agar Dilution method, Mueller Hinton Agar, 18 hours at 37° C.
Procedure: as §1, §2

E. faecium C2252 = assay type: cell-based; settings: E. faecium C2252; Agar Dilution method, Mueller Hinton Agar, 18 hours at 37° C.
Procedure: as §1, §2

S. epidermidis ATCC12228 = assay type: cell-based; settings: S. epidermidis ATCC12228; Agar Dilution method, Mueller Hinton Agar, 18 hours at 37° C.
Procedure: as §1, §2

S. epidermidis C2235 = assay type: cell-based; settings: S. epidermidis C2235; Agar Dilution method, Mueller Hinton Agar, 18 hours at 37° C.
Procedure: as §1, §2

E. faecium C6301 = assay type: cell-based; settings: E. faecium C6301; Agar Dilution method, Mueller Hinton Agar, 18 hours at 37° C.
Procedure: as §1, §2

S. pyogenes ATCC8668 = assay type: cell-based; settings: S. pyogenes ATCC8668; Agar Dilution method, Mueller Hinton Agar, 18 hours at 37° C.
Procedure: as §1, §2

E. faecalis C6291 = assay type: cell-based; settings: E. faecalis C6291; Agar Dilution method, Mueller Hinton Agar, 18 hours at 37° C.
Procedure: as §1, §2

E. faecalis ATCC29212 = assay type: cell-based; settings: E. faecalis ATCC29212; Agar Dilution method, Mueller Hinton Agar, 18 hours at 37° C.
Procedure: as §1, §2

S. epidermidis C2230 = assay type: cell-based; settings: S. epidermidis C2230; Agar Dilution method, Mueller Hinton Agar, 18 hours at 37° C.
Procedure: as §1, §2

E. faecalis C6288 = assay type: cell-based; settings: E. faecalis C6288; Agar Dilution method, Mueller Hinton Agar, 18 hours at 37° C.
Procedure: as §1, §2

SMILES | Minimum inhibition concentration (MIC) (VRE C6488) [µg/mL] | Minimum inhibition concentration (MIC) (VRE C6487) [µg/mL] | Minimum inhibition concentration (MIC) (MRSA C2207) [µg/mL] | Minimum inhibition concentration (MIC) (MRSA C5100) [µg/mL] | Minimum inhibition concentration (MIC) (MRSA C6068) [µg/mL] | Minimum inhibition concentration (MIC) (CRSA C1062) [µg/mL] | Minimum inhibition concentration (MIC) (MSSA C2214) [µg/mL] | Minimum inhibition concentration (MIC) (MSSA C7142) [µg/mL] | Minimum inhibition concentration (MIC) (CRSA C6043) [µg/mL] | Minimum inhibition concentration (MIC) (S. pyogenes C6003) [µg/mL] | Minimum inhibition concentration (MIC) (S. pyogenes C6012) [µg/mL] | Minimum inhibition concentration (MIC) (S. aureus ATCC 29213) [µg/mL] | Minimum inhibition concentration (MIC) (E. faecium C2252) [µg/mL] | Minimum inhibition concentration (MIC) (S. epidermidis ATCC12228) [µg/mL] | Minimum inhibition concentration (MIC) (S. epidermidis C2235) [µg/mL] | Minimum inhibition concentration (MIC) (E. faecium C6301) [µg/mL] | Minimum inhibition concentration (MIC) (S. pyogenes ATCC8668) [µg/mL] | Minimum inhibition concentration (MIC) (E. faecalis C6291) [µg/mL] | Minimum inhibition concentration (MIC) (E. faecalis ATCC29212) [µg/mL] | Minimum inhibition concentration (MIC) (S. epidermidis C2230) [µg/mL] | other results
CCOC(=O)C(C#N)=C1CCN(c2ccc(N3C[C@H](CNC(C)=O)OC3=O)cc2F)CC1 [Compound 7, N-[[(5S)-3-[3-fluoro-4-((4-(1-ethoxycarbonyl-1-cyano)-methylidene)piperidinyl)phenyl]-2-oxo-5-oxazolidinyl]methyl]acetamide] | 2 (≈ 4.5 µM) | 2 (≈ 4.5 µM) | 4 (≈ 9 µM) | 4 (≈ 9 µM) | 4 (≈ 9 µM) | 4 (≈ 9 µM) | 4 (≈ 9 µM) | 4 (≈ 9 µM) | 4 (≈ 9 µM) | 4 (≈ 9 µM) | 1 (≈ 2.25 µM) | 4 (≈ 9 µM) | 4 (≈ 9 µM) | 1 (≈ 2.25 µM) | 2 (≈ 4.5 µM) | 2 (≈ 4.5 µM) | 1 (≈ 2.25 µM) | 4 (≈ 9 µM) | 4 (≈ 9 µM) | 2 (≈ 4.5 µM) | Minimum inhibition concentration (MIC) (E. faecalis C6288): 4 µg/mL (≈ 9 µM)
CC(=O)C=C1CCN(c2ccc(N3C[C@H](CNC(C)=O)OC3=O)cc2F)CC1 [Compound 12, N-[[(5S)-3-[3-fluoro-4-(4-methylcarbonylmethylidene-piperidinyl)phenyl]-2-oxo-5-oxazolidinyl]methyl]acetamide] | 8 (≈ 20.5 µM) | 2 (≈ 5.14 µM) | 8 (≈ 20.5 µM) | 8 (≈ 20.5 µM) | 16 (≈ 41.1 µM) | 8 (≈ 20.5 µM) | 16 (≈ 41.1 µM) | 16 (≈ 41.1 µM) | 16 (≈ 41.1 µM) | 0.2 (≈ 0.514 µM) | 16 (≈ 41.1 µM) | 8 (≈ 20.5 µM) | 8 (≈ 20.5 µM) | 1 (≈ 2.57 µM) | 8 (≈ 20.5 µM) | 8 (≈ 20.5 µM) | 8 (≈ 20.5 µM) | 16 (≈ 41.1 µM) | 16 (≈ 41.1 µM) | 8 (≈ 20.5 µM) | Minimum inhibition concentration (MIC) (E. faecalis C6288): 16 µg/mL (≈ 41.1 µM)
CC(=O)NC[C@H]1CN(c2ccc(N3CCC(=CC(C)OC(C)=O)CC3)c(F)c2)C(=O)O1 (stereo partly drawn) [Compound 23, N-[[(5S)-3-[3-fluoro-4-(4-(2-acetoxypropylidene)-piperidinyl)phenyl]-2-oxo-5-oxazolidinyl]methyl]acetamide] | 4 (≈ 9.23 µM) | 4 (≈ 9.23 µM) | 8 (≈ 18.5 µM) | 16 (≈ 36.9 µM) | 8 (≈ 18.5 µM) | 16 (≈ 36.9 µM) | 16 (≈ 36.9 µM) | 16 (≈ 36.9 µM) | 16 (≈ 36.9 µM) | 8 (≈ 18.5 µM) | 2 (≈ 4.61 µM) | 16 (≈ 36.9 µM) | 8 (≈ 18.5 µM) | 2 (≈ 4.61 µM) | 8 (≈ 18.5 µM) | 8 (≈ 18.5 µM) | 0.5 (≈ 1.15 µM) | 8 (≈ 18.5 µM) | 8 (≈ 18.5 µM) | 8 (≈ 18.5 µM) | Minimum inhibition concentration (MIC) (E. faecalis C6288): 8 µg/mL (≈ 18.5 µM)
CC(=O)NC[C@H]1CN(c2ccc(N3CCC(=CC(C)=NO)CC3)c(F)c2)C(=O)O1 [Compound 20, N-[[(5S)-3-[3-fluoro-4-(4-(2-hydroxyiminopropylidene)-piperidinyl)phenyl]-2-oxo-5-oxazolidinyl]methyl]acetamide] | 4 (≈ 9.89 µM) | 4 (≈ 9.89 µM) | 8 (≈ 19.8 µM) | 8 (≈ 19.8 µM) | 4 (≈ 9.89 µM) | 8 (≈ 19.8 µM) | 8 (≈ 19.8 µM) | 16 (≈ 39.6 µM) | 8 (≈ 19.8 µM) | 4 (≈ 9.89 µM) | 1 (≈ 2.47 µM) | 8 (≈ 19.8 µM) | 4 (≈ 9.89 µM) | 1 (≈ 2.47 µM) | 4 (≈ 9.89 µM) | 4 (≈ 9.89 µM) | 1 (≈ 2.47 µM) | 4 (≈ 9.89 µM) | 8 (≈ 19.8 µM) | 4 (≈ 9.89 µM) | Minimum inhibition concentration (MIC) (E. faecalis C6288): 4 µg/mL (≈ 9.89 µM)
